Measurements from paper PMC9546217, “Exploring novel nitrofuranyl sulfonohydrazides as anti‐Leishmania and anti‐cancer agents: Synthesis, in vitro efficacy and hit identification” (Chemical Biology & Drug Design, 2022).
Where two headings read alike, the source gives them in different places.

What was measured:
[1] = tested on: L. donovani strain 1S promastigotes; experiment: Antipromastigote assay (resazurin); assay type: cell-based; details: L. donovani 1S, read-out: 1S IC50 ± SD, Promastigote
Method: (§1) The antipromastigote activity of synthesized compounds was evaluated as described previously by Mangwegape et al. ([2021]) using three strains of L. donovani (1S (MHOM/SD/62/1S) and 9515 (MHOM/IN/95/9515)) and L. major (IR‐173 [MHOM/IR/−173]). The assay method is available in the Supinfo S1.
(§2) The antipromastigote activity of synthesized compounds was evaluated using a modified, resazurin-based method of Kulshrestha et al. ^2 and Siqueira-Neto et al. ^3 and on three Leishmania strains. Leishmania donovani (strains 1S (MHOM/SD/62/1S) and 9515 (MHOM/IN/95/9515)) and L. major (strain IR-173 (MHOM/IR/-173)) promastigotes were cultured in M199 with Hank's salts and 0.68 mM L-glutamine (Sigma Aldrich) supplemented with 50 U/mL Penicillin/Streptomycin solution (Lonza), 4.2 mM sodium bicarbonate, 25 mM Hepes, 10% fetal bovine serum, 0.25% hemin, 0.1% biotin, and 10 mM adenine (Sigma Aldrich) and the pH adjusted to 7.3 – 7.4. The promastigotes were maintained at 25 °C.
(§3) Amphothericin B (10 μM) served as the standard drug and growth medium without parasites served as the blank. The plates were incubated for 48 hours at 25 °C in humidified atmosphere. After incubation, 50 μL of resazurin solution (0.01% in PBS) was added to each well and the plates were further incubated at 25 °C in the dark for 24 hours. Absorbance was measured at 570 nm and 600 nm using the Thermofisher Scientific GO Multiscan plate reader. Data analysis was performed for each biological replicate using SkanIt 4.0 Research Edition software. Background absorbance of resazurin (600 nm) was subtracted from the absorbance values of resorufin (570 nm). The mean absorbance calculated and the percentage growth inhibition and cell viability were determined by the following equations: […]
(§4) The IC50 and Z-score were determined for each compound’s three biological replicates using the cell viability % values and GraphPad Prism 5. The mean IC50 of the biological replicates with standard deviation (SD) served as the final IC50 of each compound.

[2] = tested on: L. donovani strain 9515 promastigotes; experiment: Antipromastigote assay (resazurin); assay type: cell-based; details: L. donovani 9515, read-out: 9515 IC50 ± SD, Promastigote
Method: as §1, §2, §3, §4

[3] = tested on: L. major strain IR‐173 promastigotes; experiment: Antipromastigote assay (resazurin); assay type: cell-based; details: L. major IR‐173, read-out: Antileishmanial activity, IC50 ± SD, Promastigote
Method: as §1, §2, §3, §4

[4] = tested on: Candida albicans (ATCC 10231); parameters: method as in Alsaeedi et al., [2015]; details: diffusion method; ref Alsaeedi et al., [2015]; cited from earlier work
[5] = tested on: Escherichia coli (ATCC 25922); parameters: method as in Alsaeedi et al., [2015]; details: diffusion method; ref Alsaeedi et al., [2015]; cited from earlier work
[6] = tested on: Salmonella susi (ATTC 13070); parameters: method as in Alsaeedi et al., [2015]; details: diffusion method; ref Alsaeedi et al., [2015]; cited from earlier work
[7] = tested on: Staphylococcus aureus (ATCC 25923); parameters: method as in Alsaeedi et al., [2015]; details: diffusion method; ref Alsaeedi et al., [2015]; cited from earlier work
[8] = Cytotoxicity on differentiated host THP-1 macrophages, resazurin assay; assay type: cell-based, human; details: human, PMA-differentiated THP-1 macrophages, read-out: Cytotoxicity, IC50 ± SD, THP‐1
Method: (§5) Duplicate 96‐well plates (for respective anti‐amastigote and cytotoxicity assays) were seeded with 200 μl of a 2.5 × 10^5 cells/ml suspension treated with 25 ng/ml phorbol 12‐myristate 13‐acetate (PMA), followed by 48‐h incubation to promote differentiation into adherent macrophages.
(§6) Cytotoxicity of the compounds on the differentiated host THP-1 cells were also evaluated. As mentioned, duplicate plates of differentiated THP-1 cells were prepared during the anti-amastigote assay. These plates were incubated for 72 hours to differentiate, instead of replacing the growth medium with parasite-containing medium after 48 hours. […] Blanks were growth medium without cells. The treated plates were incubated for 72 hours, followed by the addition of 50 μL of resazurin solution (0.01% in PBS) to each well and 24-hour incubation.

[9] = tested on: L. donovani strains (1S and 9515) amastigotes; experiment: Anti-amastigote selectivity, strain not separated; assay type: cell-based; details: strain not given
Method: The activities of synthesized compounds against the intramacrophage parasites of the three Leishmania strains were evaluated using a modified, resazurin‐based method (Jain et al., [2012]; Njanpa et al., [2021]). Suspension cultures of human acute monocytic leukemia (THP‐1) cells were maintained in RPMI‐1640 medium (Sigma Aldrich) supplemented with 10% FBS and 1% penicillin–streptomycin, at 37°C and 5% CO2 in a humidified atmosphere. Duplicate 96‐well plates (for respective anti‐amastigote and cytotoxicity assays) were seeded with 200 μl of a 2.5 × 10^5 cells/ml suspension treated with 25 ng/ml phorbol 12‐myristate 13‐acetate (PMA), followed by 48‐h incubation to promote differentiation into adherent macrophages.
For the anti‐amastigote assay, differentiated plates were carefully washed with PBS, followed by the addition of 200 μl of stationary phase promastigotes in RPMI 1640 medium with 2% FBS. An MOI of 30:1 was used for all three Leishmania strains. The parasite‐treated plates were incubated for 24 h at 32°C (L. major) or 37°C (L. donovani) and 5% CO2 to promote infection of the macrophages. […] Blanks were represented by growth medium without cells, as well as parasite‐free THP‐1 cells. The treated plates were incubated for 72 h.
After incubation, the plates were gently washed three times with PBS to remove any remaining extracellular parasites. The wells were then treated with 20 μl of 0.05% sodium dodecyl sulfate in PBS for 30 s to lyse the host macrophages. Lysis was terminated by adding 180 μl promastigote growth medium with 10% FBS. To initiate the resazurin assay, 10 μl of resazurin solution (0.025% in PBS) was added to all wells and the plates were incubated for 24 h at 32°C (L. major) or 37°C (L. donovani) and 5% CO2. Absorbance measurements, calculations, and IC50 determinations were performed as described for the antipromastigote assay (Supinfo S1).

[10] = tested on: THP‐1 cells; experiment: Cytotoxicity on differentiated host THP-1 macrophages, resazurin assay; assay type: cell-based, human; details: differentiated THP-1 macrophages, 72 h; read-out: Cytotoxicity, IC50 ± SD, THP‐1
Method: as §5, §6

[11] = tested on: Vero cells; experiment: in vitro
Method: The assay method is available in the Supinfo S1.
African green monkey kidney epithelial (Vero) cells (Cellonex, South Africa) were cultured and the basal cytotoxicity of the synthesized compounds with antileishmanial and/or anticancer activity was evaluated using the resazurin assay, as described in Mangwegape et al. ^4 Emetine served as the standard cytotoxic drug. Further use of reference drugs, controls, data analysis, calculations and IC50 determinations were identical to that of the antileishmanial assay.

Compound	IC50 ([1]; Leishmania donovani) [µM]	IC50 ([2]; Leishmania donovani) [µM]	IC50 ([3]; Leishmania major) [µM]	antimicrobial activity (inhibition zone) [4]	antimicrobial activity (inhibition zone) [5]	inhibition zone [6] [mm]	antimicrobial activity (inhibition zone) [7]	IC50 at 72 h [8] [µM]	selectivity index (SI) relative to the host THP‐1 cells [9]	selectivity index (SI) toward Vero cells [9]	IC50 [1] [µM]	IC50 [2] [µM]	IC50 [3] [µM]	IC50 [10] [µM]	IC50 [11] [µM]
Cc1ccc(S(=O)(=O)N/N=C/c2ccc([N+](=O)[O-])o2)cc1 [2c, (E)-4-Methyl-N'-[(5-nitrofuran-2-yl)methylene]benzenesulfonohydrazide]	> 10	> 10	> 10	no activity	no activity	20	no activity	–	–	–	–	–	–	–	–
CC(C)(C)c1ccc(S(=O)(=O)N/N=C/c2ccc([N+](=O)[O-])o2)cc1 [2f, (E)-4-(tert-Butyl)-N'-[(5-nitrofuran-2-yl)methylene]benzenesulfonohydrazide]	5.29 ± 0.69	3.5 ± 0.58	6.93 ± 0.83	–	–	–	–	84.6 ± 2.16	> 10	< 10	–	–	–	–	–
O=C1CN(/N=C/c2ccc([N+](=O)[O-])o2)C(=O)N1 [NFT, nitrofurantoin, reference compound]	> 10	> 10	> 10	–	–	–	–	> 100	–	–	–	–	–	–	–
(E)-2,4,6-Trimethyl-N'-[(5-nitrofuran-2-yl)methylene]benzenesulfonohydrazide [2e]	–	–	–	–	–	–	–	–	> 10	< 10	3.04 ± 0.04	3.97 ± 1.08	7.09 ± 0.74	> 100	39.8 ± 5.89
O=[N+]([O-])c1ccc(/C=N/NS(=O)(=O)c2ccc(-c3ccccc3)cc2)o1 [2h, (E)-N'-[(5-Nitrofuran-2-yl)methylene]-(1,1'-biphenyl)-4-sulfonohydrazide]	1.45 ± 0.16	1.53 ± 0.14	2.49 ± 0.51	–	–	–	–	50.4 ± 2.26	> 10	< 10	–	–	–	–	–
CC(C)c1ccc(S(=O)(=O)N/N=C/c2ccc([N+](=O)[O-])o2)cc1 [2d, (E)-4-Isopropyl-N'-[(5-nitrofuran-2-yl)methylene]benzenesulfonohydrazide]	5 ± 1.32	3.62 ± 0.65	4.71 ± 0.33	–	–	–	–	93.1 ± 3.51	–	–	–	–	–	–	–
O=Cc1ccc([N+](=O)[O-])o1 [NFA, 5‐nitro‐2‐furaldehyde, reference compound]	6.39 ± 0.26	> 10	7.28 ± 0.1	–	–	–	–	–	–	–	–	–	–	80.9 ± 6.37	–
O=[N+]([O-])c1ccc(/C=N/NS(=O)(=O)c2cccc3c2OCCO3)o1 [2l, (E)-N'-[(5-Nitrofuran-2-yl)methylene]-2,3-dihydrobenzo[b][1,4]dioxine-5-sulfonohydrazide]	9.24 ± 1.32	7.25 ± 0.11	8.1 ± 0.03	–	–	–	–	> 100	> 10	< 10	–	–	–	–	–
O=C(N/N=C/c1ccc([N+](=O)[O-])o1)c1ccc(O)cc1 [NFX, Nifuroxazide, reference compound]	> 10	> 10	> 10	–	–	–	–	> 100	–	–	–	–	–	–	–
